Measured values reported in the METLIN SMRT retention time set (Domingo-Almenara et al. 2019).

assay: gradient 5% acetonitrile 3 min, to 50% in 2 min, to 85% in 15 min, held 3 min, 100 µL/min; details: column: Zorbax Extend-C18 2.1 x 50 mm; eluents: water / acetonitrile, 0.1% formic acid
How it was run: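 Retention times of pure standards were taken from adduct peaks that were selected by computer and manually inspected. Over 3 months, mixtures of ~100 molecules were run by HPLC–quadrupole time-of-flight mass spectrometry in positive and negative ionization mode. The Zorbax Extend-C18 column (2.1 × 50 mm, 1.8 μm) ran at 100 μL/min in water and acetonitrile, each containing 0.1% formic acid, with 40 μL dead volume and 900 μL dwell volume.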

Compared with CCOc1ccc(N2CCn3c2nc2c3c(=O)n(CC(=O)O)c(=O)n2C)cc1, CCOc1ccc(-n2cc(C(=O)OCc3ccccn3)c3ccccc3c2=O)cc1 is higher in RP-LC retention time: 689 s for the first, 750 s for the second.

Going from Cn1ncc2c3ccccc3n(CCCC(=O)NCCc3cccs3)c2c1=O to O=C(CSc1ccc(-c2cccc([N+](=O)[O-])c2)nn1)NCc1cccs1, the RP-LC retention time falls from 834 s to 766 s.

Going from O=C(c1csc(S(=O)(=O)N2CCC(C(=O)N3CCc4ccccc4C3)CC2)c1)N1CCCC1 to CCOC(=O)C1CCCN(C(=O)CCC(=O)N2CCCn3nc(-c4cn(C)c5ccccc45)cc32)C1 (centres undefined), the RP-LC retention time falls from 817 s to 803 s.

Compared with Cc1cc(C)cc(NC(=O)c2cnn3c2CCCC3)c1, CCn1c(=O)c2ccn(CC(=O)Nc3cc(C)cc(C)c3)c2n(CC)c1=O is higher in RP-LC retention time: 603 s for the first, 792 s for the second.

Compared with CNC(=O)c1ccc(Nc2c(-c3ccc(OC)cc3)nc3cnccn23)cc1, CCn1cc(-c2ccc(OC)cc2)cc1C(=O)NC(C)c1cccnc1 (centres undefined) is higher in RP-LC retention time: 643 s for the first, 693 s for the second.

Going from O=C([C@@H]1C[C@H](F)CN1S(=O)(=O)c1ccc(F)cc1)N1CCOCC1 to O=C1CCCc2cc(S(=O)(=O)NCC3CCN(Cc4ccc(F)cc4)CC3)ccc2N1, the RP-LC retention time falls from 664 s to 603 s.

Compared with CCCN(CC1CCOC1)C(=O)c1ccccc1Br (centres undefined), CCCn1cnc2cc(CNC(=O)CCC3CCCC3)ccc21 is lower in RP-LC retention time: 801 s for the first, 649 s for the second.

Compared with Cc1cc(Cl)ccc1N1C(=O)CN(S(C)(=O)=O)CC1(C)C(=O)NC1CCCCCC1 (centres undefined), CCOc1cc(=O)n2c(c1C(=O)Nc1cccc3c1CCCC3)CCCC2 is lower in RP-LC retention time: 984 s for the first, 804 s for the second.

First: CCOC(=O)N1CCC(NC(=O)Cc2csc(Nc3cccc(Cl)c3)n2)CC1
Second: CC(=O)c1cccc(S(=O)(=O)NCC2CCN(C(=O)c3cc4ccccc4o3)CC2)c1
The RP-LC retention time of the first is lower: 771 s for the first, 781 s for the second.

First: CC1CC(=O)N(CC(=O)Nc2ccc(Cl)cc2)c2ccccc2S1(=O)=O (centres undefined)
Second: O=C(Nc1ccc(Br)cc1)Nc1ccccc1Cl
The RP-LC retention time of the first is lower: 843 s for the first, 1140 s for the second.

Compared with O=C(NCc1ccc(-c2noc(Cc3ccccc3F)n2)s1)C1CC1, CC(=O)NCc1ccc(-c2noc(-c3ccc(N(C)C)cc3)n2)s1 is lower in RP-LC retention time: 868 s for the first, 861 s for the second.

First: COc1cccc(-c2nnc(Cc3nc(-c4ccc(OC)c(OC)c4)no3)o2)c1
Second: Cc1ccc(CNC(=O)Cc2nnc(-c3ccc4ncccc4c3)o2)cc1C
The RP-LC retention time of the first is lower: 894 s for the first, 915 s for the second.

First: CCOC(=O)c1nc(NCCc2ccc(C)cc2)c2c(CC)noc2n1
Second: CCOC(=O)c1nc(N2CCN(c3cc(C)ccc3C)CC2)c2ccccc2n1
The RP-LC retention time of the first is lower: 1080 s for the first, 1120 s for the second.

Compared with CC(=O)c1ccc(NC(=O)CCc2c(C)nn(-c3cc(N4CCCC4)ncn3)c2C)cc1, Cc1cc(C)n(-c2ccc(N3CCC(C(=O)NCc4ccc5c(c4)OCO5)CC3)nn2)n1 is lower in RP-LC retention time: 769 s for the first, 642 s for the second.

First: OC(CN1CCN(c2ncccn2)CC1)c1ccc(Cl)cc1 (centres undefined)
Second: O=C(O)c1cc(N2CCCN(c3ncccn3)CC2)ccc1NC(=O)C1CC1
The RP-LC retention time of the first is lower: 614 s for the first, 702 s for the second.

First: O=C(NCc1nc2ccccc2[nH]1)c1ccc(OCC(=O)C2CC2)cc1
Second: CC(C)NC(=O)c1ccc(OCC2CCCN(C(=O)c3c(F)cccc3F)C2)cc1 (centres undefined)
The RP-LC retention time of the first is lower: 561 s for the first, 841 s for the second.

Compared with COc1cccc(CCC(=O)N2CCc3cc(-c4csc(C)n4)ccc32)c1, O=C(CCc1ccccc1)N1CCc2cc(-c3ccno3)ccc21 is lower in RP-LC retention time: 1040 s for the first, 1020 s for the second.

Going from Cc1ccc(C2=NC3(CCN(C(=O)c4ccc[nH]4)CC3)ON2)cc1 to Cc1ccc(NC(=O)C2CCCN(c3cn[nH]c(=O)c3)C2)cc1 (centres undefined), the RP-LC retention time falls from 747 s to 679 s.

Compared with O=C(NCc1csc(-c2ccccc2)n1)[C@H]1CCCN1C(=O)c1cccc(Br)c1, CSc1cccc(NC(=O)Cn2c(-c3ccccc3)nc(C)cc2=O)c1 is higher in RP-LC retention time: 889 s for the first, 1050 s for the second.

Compared with Cc1cccnc1NC(=O)C1c2ccccc2C(=O)N(Cc2ccccc2)C12CCCC2 (centres undefined), O=C(NC1CC(=O)N(Cc2ccccc2)C1)c1ccco1 (centres undefined) is lower in RP-LC retention time: 782 s for the first, 667 s for the second.

Going from CC(=O)c1cccc(NC(=O)Cn2c(=O)n(-c3ccc(C)cc3)c(=O)c3c2cc(C)n3C)c1 to COC(=O)c1sccc1NC(=O)Cn1c(C)cc(C)c(-c2nc(-c3cccc(Cl)c3)no2)c1=O, the RP-LC retention time rises from 819 s to 1170 s.

Compared with CC(C)Cn1c(=O)c(N2CCN(S(=O)(=O)c3ccccc3)CC2)nc2ccncc21, CCOc1ccc(S(=O)(=O)N2CCC(c3noc(-c4ccccc4C)n3)CC2)cc1 is higher in RP-LC retention time: 612 s for the first, 1180 s for the second.

First: CCN1CCCn2nc(C3CCN(C(=O)c4ccc5c(c4)OCO5)CC3)cc2C1=O
Second: O=C(Nc1ccc(F)cc1)N1CCC(N2CCN(Cc3cccc(F)c3)C(=O)C2=O)CC1
The RP-LC retention time of the first is lower: 628 s for the first, 722 s for the second.

Going from CC(C)NC(=O)c1ccc2ccnc(N3CCN(c4ccc(Cl)cc4)CC3)c2c1 to COC(=O)c1ccc2c(=O)n(Cc3ccc(F)cc3)c(N3CCN(c4ccccn4)CC3)nc2c1, the RP-LC retention time falls from 816 s to 772 s.

First: COc1ccccc1NC(=O)N1CCCC(C)(C(=O)NCc2ccc(C)cc2)C1 (centres undefined)
Second: COc1ccc(CNC(=O)N2CCC3(C2)C(=O)N(C)c2ccccc23)cc1 (centres undefined)
The RP-LC retention time of the first is higher: 898 s for the first, 734 s for the second.

First: COc1cc(-c2nc3ncccn3c2NC2CCCCC2)cc(OC)c1OC
Second: COc1cc(OC)c(NC(=O)N2CCc3nc(-c4ccccc4)ncc3C2)cc1Cl
The RP-LC retention time of the first is lower: 724 s for the first, 975 s for the second.

CCOc1ccc2cccc(NC(=O)c3ccc(S(=O)(=O)N(C)C)cc3)c2n1 and N#Cc1ccc(-c2csc(NC(=O)c3ccc(Cl)cc3)n2)cc1 are the same in RP-LC retention time: 1140 s for the first, 1140 s for the second.

First: O=C(CCn1nnc2cc(-c3noc(COc4ccc(Cl)cc4)n3)ccc21)N1CCCC1
Second: Cn1nnc2c(N3CCN(C(=O)C(C)(C)Oc4ccc(Cl)cc4)CC3)ncnc21
The RP-LC retention time of the first is higher: 942 s for the first, 850 s for the second.

First: CCn1nccc1C(=O)NC1CCN(c2ncnc3c2CCC3)C1 (centres undefined)
Second: CCCNc1cc(N2CCC(CCC(=O)NC(C)C)CC2)ncn1
The RP-LC retention time of the first is lower: 585 s for the first, 602 s for the second.

Compared with O=C(Cn1nc2c3sc(N4CCCCC4)nc3ncn2c1=O)Nc1ccc(F)c(Cl)c1, CC1=C(c2ccc(F)cc2)S(=O)(=O)N=C1N1CCCN(C(=O)NC(C)C)CC1 is lower in RP-LC retention time: 869 s for the first, 746 s for the second.

First: CC(C)Oc1ccc(C(=O)N(Cc2ccc(Br)o2)C2CCS(=O)(=O)C2)cc1 (centres undefined)
Second: CC1=C(c2ccc(C(C)C)cc2)S(=O)(=O)N=C1N1CCC(NC(=O)c2ccoc2)CC1
The RP-LC retention time of the first is higher: 963 s for the first, 769 s for the second.

First: Cc1ccc(C(=O)Nc2nc(-c3ccc4c(c3)NC(=O)CO4)cs2)cc1
Second: CCCCOc1ccc(-c2csc(NC(=O)c3cc4cccc(OC)c4oc3=O)n2)cc1
The RP-LC retention time of the first is lower: 873 s for the first, 897 s for the second.

Cc1nc2cc(-c3noc(C4CC(=O)N(c5ccccc5)C4)n3)ccc2n(C2CCCC2)c1=O (centres undefined) and CN(C)c1cccc(-c2nc(C3CC(=O)N(c4ccccc4)C3)no2)c1 (centres undefined) are the same in RP-LC retention time: 1030 s for the first, 1030 s for the second.

Going from O=C(NCc1nnnn1-c1ccc(F)c(F)c1)c1cc(=O)c2ccccc2o1 to O=C1CCCc2c1cc(C(=O)NCc1ccccn1)c(=O)n2-c1ccc(F)cc1, the RP-LC retention time falls from 707 s to 630 s.

First: Cc1ccc(-c2nc3ccc(C)cn3c2Nc2ccccc2C)cc1
Second: CCOc1ccc(NS(=O)(=O)c2ccccc2-c2nc(-c3ccc(F)cc3)no2)cc1
The RP-LC retention time of the first is lower: 788 s for the first, 1200 s for the second.

First: CCN(c1ccccc1C)S(=O)(=O)c1cc(-c2[nH]ncc2C(=O)N(C)C)oc1C
Second: COc1ccccc1NS(=O)(=O)c1ccc2c(c1)CCCC(=O)N2
The RP-LC retention time of the first is higher: 782 s for the first, 716 s for the second.

First: CCc1ccc(NC(=O)Cn2c(C)nc3c(sc4nc(-c5ccccc5)ccc43)c2=O)cc1
Second: Cc1nc(-c2noc(-c3cccc(F)c3)n2)cn1CC(=O)Nc1cccc(F)c1
The RP-LC retention time of the first is higher: 1120 s for the first, 889 s for the second.

First: CCC1(O)CCC12CCN(C(=O)c1ccsc1)CC2 (centres undefined)
Second: CC(=O)N1CCC(CC(=O)N(C)CC2(C)CCOCC2)CC1
The RP-LC retention time of the first is higher: 716 s for the first, 594 s for the second.

Compared with CC(NC(=O)Cn1cnc2cc3c(cc21)OCCO3)c1ccc2c(c1)OCCCO2 (centres undefined), CCOc1ccccc1N1CC(c2nc3ccccc3n2CCN2CCOCC2)CC1=O (centres undefined) is lower in RP-LC retention time: 646 s for the first, 610 s for the second.

Compared with CCNC(=O)c1sc(Nc2ccc(Cl)cn2)nc1C, Cc1nc(C)c(C(=O)Nc2nc(-c3ccc(C)c(C)c3)cs2)s1 is higher in RP-LC retention time: 726 s for the first, 1060 s for the second.

Going from Cc1cccc(N2CC(C(=O)N(C)C)CC2=O)c1 (centres undefined) to CCN1CCN(c2nc(-c3cccc(C)c3)nnc2C)CC1, the RP-LC retention time falls from 660 s to 575 s.

Compared with O=C1CCc2cc(NC(=O)c3cccnc3)ccc2N1, O=C(NCCn1c(-c2ccncc2)nc2cccnc21)Nc1cccc(Cl)c1 is higher in RP-LC retention time: 579 s for the first, 645 s for the second.

Compared with CC(C)n1cc(CN2CC(F)(F)C[C@H]2COc2cccnc2)c2ccccc21, CCCCn1cc(S(=O)(=O)Nc2cccc(F)c2)c2cccnc21 is higher in RP-LC retention time: 698 s for the first, 936 s for the second.

Compared with Cc1cccc(-c2ncccc2CNS(=O)(=O)c2ccc(F)cc2)c1, COCCNC(=O)c1nc(Nc2ccc(F)cc2)c2ccccc2n1 is lower in RP-LC retention time: 724 s for the first, 681 s for the second.

For COc1cccc(CC2C(=O)Nc3ccc(Cl)cc32)c1OC (centres undefined), the RP-LC retention time was 900 s.
